Assay results published in paper PMC7413254 (Nature Communications, 2020).
Like-named read-outs stand apart in the source and are kept apart here.

Experiments:
non-expressing oocytes [1] = experiment: cells; format: cell-based, Xenopus laevis; conditions: Xenopus laevis, total [3H]CQ transport; for inhibition at 500 µM: [test solute] = 0.5 mM; for inhibition at 1000 µM: [test solute] = 1 mM; for inhibition at 2000 µM: [test solute] = 2 mM
Summary of the method: (§1)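 PfCRT-expressing and control oocytes: ND96 pH 5.5 → 1.5 h at 27.5 °C → ice-cold ND96 wash → 10% SDS lysis → scintillation count.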

PfCRT^3D7 [2] = molecular target: T1, PfCRT^3D7 (Plasmodium falciparum, UniProt Q8IBZ9); experiment: cell-based; format: cell-based; conditions: total [3H]CQ transport; for inhibition at 500 µM: [test solute] = 0.5 mM; for inhibition at 1000 µM: [test solute] = 1 mM; for inhibition at 2000 µM: [test solute] = 2 mM
T1 sequence (Q8IBZ9 59-398): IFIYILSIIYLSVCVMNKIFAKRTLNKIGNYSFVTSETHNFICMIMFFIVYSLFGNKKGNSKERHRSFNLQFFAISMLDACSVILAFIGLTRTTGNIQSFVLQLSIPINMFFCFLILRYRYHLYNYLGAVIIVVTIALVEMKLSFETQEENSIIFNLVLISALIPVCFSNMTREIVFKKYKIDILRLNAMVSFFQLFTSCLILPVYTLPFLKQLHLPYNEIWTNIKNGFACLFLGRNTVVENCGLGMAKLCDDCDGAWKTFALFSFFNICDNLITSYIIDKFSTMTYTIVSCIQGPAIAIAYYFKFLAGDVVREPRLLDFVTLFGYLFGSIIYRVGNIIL
Summary of the method: as §1

PfCRT^Dd2 [3] = molecular target: T2, PfCRT^Dd2 (Plasmodium falciparum, UniProt Q9N623, A220S/I356T/K76T/M74I/N326S/N75E/Q271E/R371I); experiment: [3H]CQ uptake into Xenopus oocytes, cis-inhibition by unlabelled solute; format: cell-based
T2 sequence (Q9N623 whole entry A220S/I356T/K76T/M74I/N326S/N75E/Q271E/R371I): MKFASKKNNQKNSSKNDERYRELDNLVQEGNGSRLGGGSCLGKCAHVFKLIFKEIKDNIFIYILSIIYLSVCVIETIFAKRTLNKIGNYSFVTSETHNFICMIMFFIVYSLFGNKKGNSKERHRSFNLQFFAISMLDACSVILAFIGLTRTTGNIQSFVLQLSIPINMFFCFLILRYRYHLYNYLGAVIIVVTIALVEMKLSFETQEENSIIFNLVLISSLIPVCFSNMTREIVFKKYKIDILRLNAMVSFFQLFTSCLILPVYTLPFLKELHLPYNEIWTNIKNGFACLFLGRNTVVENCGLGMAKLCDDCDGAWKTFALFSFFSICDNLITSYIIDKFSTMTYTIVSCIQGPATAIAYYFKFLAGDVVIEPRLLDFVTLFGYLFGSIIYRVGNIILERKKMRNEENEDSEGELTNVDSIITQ
Summary of the method: as §1

PfCRT^Ecu1110 [4] = molecular target: T3, PfCRT^Ecu1110 (Plasmodium falciparum, UniProt Q9N623, A220S/I356L/K76T/N326D); experiment: as above; format: cell-based
T3 sequence (Q9N623 whole entry A220S/I356L/K76T/N326D): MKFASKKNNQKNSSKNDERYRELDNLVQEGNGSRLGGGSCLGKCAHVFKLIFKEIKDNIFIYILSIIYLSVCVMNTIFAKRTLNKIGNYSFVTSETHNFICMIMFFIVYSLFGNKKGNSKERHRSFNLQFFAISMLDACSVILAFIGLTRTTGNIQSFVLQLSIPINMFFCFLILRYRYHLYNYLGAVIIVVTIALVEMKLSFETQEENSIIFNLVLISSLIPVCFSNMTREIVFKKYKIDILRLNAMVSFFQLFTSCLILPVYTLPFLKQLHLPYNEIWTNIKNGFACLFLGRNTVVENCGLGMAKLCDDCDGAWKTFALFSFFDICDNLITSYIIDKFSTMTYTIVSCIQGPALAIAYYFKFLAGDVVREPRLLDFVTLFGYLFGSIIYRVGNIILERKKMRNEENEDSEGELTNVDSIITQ
Summary of the method: as §1

non-expressing oocytes [5] = format: cell-based, Xenopus laevis; conditions: total [3H]CQ transport; for Uptake of [3H]CQ (% non-expressing oocyte control), trans-stimulation: non-expressing oocytes, normalised to the oocyte type control; for Uptake of [3H]CQ (% PfCRTDd2 control), trans-stimulation, non-expressing oocytes: mean ± SEM, SEM
Summary of the method: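 Oocytes (ten per treatment, ≥4 independent frogs/days) were preloaded by injecting VF-6 in 25 nL ND96 at pH 5.0, 5.5, 6.0 or 7.0, or Na^+-free choline buffer, then uptake run 1.5 h, 27.5 °C, ND96 pH 5.5 by default. Internal concentrations assumed ~400 nL oocyte volume.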

PfCRT^3D7 [6] = molecular target: T1, PfCRT^3D7; experiment: cell-based; format: cell-based
Summary of the method: (§2)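 Transport measured in Xenopus oocytes expressing the transporters, 1.5 h at 27.5 °C in ND96 pH 5.5 unless noted. For trans-stimulation, VF-6 injected in 25 nL ND96 at pH 5.0–7.0 or Na^+-free (choline) buffer; intracellular levels based on ~400 nL oocyte volume. Ten oocytes per treatment, ≥4 experiments.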

PfCRT^Dd2 [7] = molecular target: T2, PfCRT^Dd2; experiment: cell-based; format: cell-based; conditions: […]; for activity at 45000 µM: [test solute]i = 45 mM (30 mM for some solutes due to solubility)
Summary of the method: as §2

PfCRT^Ecu1110 [8] = molecular target: T3, PfCRT^Ecu1110; experiment: cell-based; format: cell-based; conditions: […]
Summary of the method: as §2

PfNT1 = molecular target: T4, PfNT1 (Plasmodium falciparum, UniProt Q8IDM6); experiment: cell-based; format: cell-based; conditions: for activity at 5000 µM: total [3H]CQ transport
T4 construct: expressed in transfected cells; host or cells: Xenopus laevis oocytes (stage V-VI), cRNA-injected
T4 sequence (Q8IDM6 whole entry): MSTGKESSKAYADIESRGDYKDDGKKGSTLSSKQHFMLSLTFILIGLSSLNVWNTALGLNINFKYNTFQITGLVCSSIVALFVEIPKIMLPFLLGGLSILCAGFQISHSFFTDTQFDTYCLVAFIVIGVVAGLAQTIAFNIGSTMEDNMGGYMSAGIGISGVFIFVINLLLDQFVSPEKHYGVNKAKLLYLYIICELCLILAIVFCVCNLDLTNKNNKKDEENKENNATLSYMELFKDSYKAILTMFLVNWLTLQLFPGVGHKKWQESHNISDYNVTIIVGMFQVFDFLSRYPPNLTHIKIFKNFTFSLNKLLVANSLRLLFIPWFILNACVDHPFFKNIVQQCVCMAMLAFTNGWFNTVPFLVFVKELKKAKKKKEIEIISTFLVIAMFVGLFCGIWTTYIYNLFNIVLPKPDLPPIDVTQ
Summary of the method: as §2

PfCRT [9] = experiment: Influx of VF-6 via PfCRT into the oocyte, solutes tested as potential co-substrates; format: cell-based, Plasmodium falciparum; parameters: key: X: Compounds that have been tested as potential co-substrates but are not required for influx of VF-6 via PfCRT into the oocyte; conditions: X marks the solute
PfCRT [10] = experiment: Potential co-substrates tested for influx of VF-6 via PfCRT into the oocyte; format: cell-based, Plasmodium falciparum; parameters: key: X: Compounds that have been tested as potential co-substrates but are not required for influx of VF-6 via PfCRT into the oocyte
[11] = Oocyte, mean ± SEM, SEM, read-out: Uptake of [3H]CQ (% PfCRTDd2 control), cis-inhibition, non-expressing oocytes
[12] = non-expressing oocytes, normalised to the oocyte type control, read-out: Uptake of [3H]CQ (% non-expressing oocyte control), cis-inhibition
[13] = PfCRT3D7 oocytes, normalised to the oocyte type control, read-out: Uptake of [3H]CQ (% PfCRT3D7 control), cis-inhibition
[14] = mean ± SEM, SEM, read-out: Uptake of [3H]CQ (% PfCRTDd2 control), cis-inhibition, PfCRT3D7
[15] = read-out: PfCRT-mediated [3H]CQ transport, cis-inhibition (% PfCRTDd2 control)
[16] = read-out: Uptake of [3H]CQ (% PfCRTDd2 control), cis-inhibition, PfCRTDd2, SEM
[17] = read-out: PfCRT-mediated [3H]CQ transport, cis-inhibition (% PfCRTEcu1110 control)
[18] = read-out: Uptake of [3H]CQ (% PfCRTDd2 control), cis-inhibition, PfCRTEcu1110, SEM
[19] = read-out: Uptake of [3H]CQ (% PfCRTEcu1110 control), cis-inhibition
[20] = read-out: [3H]CQ transport (% PfCRTEcu1110 control), cis-inhibition, PfCRTEcu1110, SEM

N[C@@H](Cc1ccccc1)C(=O)O [L-phenylalanine]
inhibition at 500 µM (non-expressing oocytes [1]; [11]): 3 ± 0.06% | inhibition at 1000 µM (non-expressing oocytes [1]; [11]): 2.7 ± 0.04% | inhibition at 2000 µM (non-expressing oocytes [1]; [11]): 2.3 ± 0.1% | inhibition at 500 µM (non-expressing oocytes [1]; [12]): 98 ± 6.3% | inhibition at 1000 µM (non-expressing oocytes [1]; [12]): 100 ± 4.6% | inhibition at 2000 µM (non-expressing oocytes [1]; [12]): 99 ± 3.2% | inhibition at 500 µM (PfCRT^3D7 [2]; [13]): 99 ± 4.3% | inhibition at 1000 µM (PfCRT^3D7 [2]; [13]): 99 ± 5.2% | inhibition at 2000 µM (PfCRT^3D7 [2]; [13]): 100 ± 3.6% | inhibition at 500 µM (PfCRT^3D7 [2]; [14]): 3.1 ± 0.06% | inhibition at 1000 µM (PfCRT^3D7 [2]; [14]): 3.1 ± 0.06% | inhibition at 2000 µM (PfCRT^3D7 [2]; [14]): 3.1 ± 0.07% | inhibition at 500 µM (PfCRT^Dd2 [3]; [15]): 94 ± 2.7% | inhibition at 1000 µM (PfCRT^Dd2 [3]; [15]): 95 ± 2.7% | inhibition at 500 µM (PfCRT^Dd2 [3]; [16]): 96 ± 3.6% | inhibition at 1000 µM (PfCRT^Dd2 [3]; [16]): 97 ± 3.3% | inhibition at 2000 µM (PfCRT^Dd2 [3]; [16]): 98 ± 2.2% | inhibition at 500 µM (PfCRT^Ecu1110 [4]; [17]): 95 ± 3.6% | inhibition at 1000 µM (PfCRT^Ecu1110 [4]; [17]): 95 ± 0.3% | inhibition at 500 µM (PfCRT^Ecu1110 [4]; [18]): 32 ± 2.5% | inhibition at 1000 µM (PfCRT^Ecu1110 [4]; [18]): 32 ± 1.5% | inhibition at 2000 µM (PfCRT^Ecu1110 [4]; [18]): 32 ± 1.5% | inhibition at 500 µM (PfCRT^Ecu1110 [4]; [19]): 97 ± 2.1% | inhibition at 1000 µM (PfCRT^Ecu1110 [4]; [19]): 96 ± 1.8% | inhibition at 2000 µM (PfCRT^Ecu1110 [4]; [19]): 98 ± 2.4% | inhibition at 500 µM (PfCRT^Ecu1110 [4]; [20]): 29 ± 0.7% | inhibition at 1000 µM (PfCRT^Ecu1110 [4]; [20]): 29 ± 1.7% | inhibition at 2000 µM (PfCRT^Ecu1110 [4]; [20]): 29 ± 0.5% | Uptake of [3H]CQ (% non-expressing oocyte control), trans-stimulation (non-expressing oocytes [5]; [test solute]i = 5 mM): 98 ± 2.6 % non-expressing oocyte control | Uptake of [3H]CQ (% non-expressing oocyte control), trans-stimulation (non-expressing oocytes [5]; [test solute]i = 45 mM (30 mM for some solutes due to solubility)): 99 ± 2.7 % non-expressing oocyte control | Uptake of [3H]CQ (% PfCRTDd2 control), trans-stimulation, non-expressing oocytes (non-expressing oocytes [5]; [test solute]i = 5 mM (intracellular)): 2.4 ± 0.03 % PfCRTDd2 control | Uptake of [3H]CQ (% PfCRTDd2 control), trans-stimulation, non-expressing oocytes (non-expressing oocytes [5]; [test solute]i = 45 mM (intracellular; 30 mM for some solutes due to solubility)): 2.2 ± 0.09 % PfCRTDd2 control | activity at 5000 µM (PfCRT^3D7 [6]; PfCRT3D7 oocytes, [test solute]i = 5 mM, total [3H]CQ transport, normalised to the oocyte type control, read-out: Uptake of [3H]CQ (% PfCRT3D7 control), trans-stimulation): 98 ± 3.3% | [3H]CQ transport (% PfCRT3D7 control), trans-stimulation, PfCRT3D7 (PfCRT^3D7 [6]; SEM): 0.3 ± 0.01 % PfCRT3D7 control | activity at 5000 µM (PfCRT^3D7 [6]; [test solute]i = 5 mM (intracellular), PfCRT3D7 oocytes, normalised to oocyte type control, read-out: PfCRT-mediated [3H]CQ transport, trans-stimulation (% PfCRT3D7 control)): 96 ± 2.8% | activity at 45000 µM (PfCRT^3D7 [6]; SEM, read-out: Uptake of [3H]CQ (% PfCRTDd2 control), trans-stimulation, PfCRT3D7): 3.3 ± 0.05% | activity at 45000 µM (PfCRT^3D7 [6]; read-out: PfCRT-mediated [3H]CQ transport, trans-stimulation (% PfCRT3D7 control)): 96 ± 2.1% | activity at 45000 µM (PfCRT^3D7 [6]; read-out: Uptake of [3H]CQ (% PfCRT3D7 control), trans-stimulation): 98 ± 3% | activity at 5000 µM (PfCRT^3D7 [6]; total [3H]CQ transport, [test solute]i = 5 mM (intracellular), mean ± SEM, SEM, read-out: Uptake of [3H]CQ (% PfCRTDd2 control), trans-stimulation, PfCRT3D7): 3.3 ± 0.01% | activity at 5000 µM (PfCRT^Dd2 [7]; pH 5.5, read-out: PfCRT-mediated [3H]CQ transport, trans-stimulation (% PfCRTDd2 control), [test solute]i = 5 mM (intracellular), PfCRTDd2 oocytes, normalised to oocyte type control): 99 ± 3.9% | activity at 5000 µM (PfCRT^Dd2 [7]; pH 5.5, read-out: Uptake of [3H]CQ (% PfCRTDd2 control), trans-stimulation, PfCRTDd2, total [3H]CQ transport, [test solute]i = 5 mM (intracellular), mean ± SEM, SEM): 101 ± 2.4% | activity at 5000 µM (PfCRT^Dd2 [7]; pH 5.5, read-out: Uptake of [3H]CQ (% PfCRTDd2 control), trans-stimulation, PfCRTDd2 oocytes, [test solute]i = 5 mM, total [3H]CQ transport, normalised to the oocyte type control): 101 ± 2.4% | activity at 45000 µM (PfCRT^Dd2 [7]; pH 5.5, read-out: Uptake of [3H]CQ (% PfCRTDd2 control), trans-stimulation, PfCRTDd2 oocytes, total [3H]CQ transport, normalised to the oocyte type control): 100 ± 2.2% | activity at 5000 µM (PfCRT^Dd2 [7]; pH 5.5, read-out: [3H]CQ transport (% PfCRTDd2 control), trans-stimulation, PfCRTDd2, trans-stimulation, [test solute]i = 5 mM (injected), PfCRT-mediated component (background subtracted), mean ± SEM, SEM): 99 ± 3.9% | activity at 45000 µM (PfCRT^Dd2 [7]; pH 5.5, read-out: [3H]CQ transport (% PfCRTDd2 control), trans-stimulation, PfCRTDd2, trans-stimulation, PfCRT-mediated component (background subtracted), mean ± SEM, SEM): 98 ± 3% | activity at 5000 µM (PfCRT^Ecu1110 [8]; pH 5.5, read-out: PfCRT-mediated [3H]CQ transport, trans-stimulation (% PfCRTEcu1110 control), [test solute]i = 5 mM (intracellular), PfCRTEcu1110 oocytes, normalised to oocyte type control): 96 ± 1.9% | activity at 5000 µM (PfCRT^Ecu1110 [8]; pH 5.5, read-out: Uptake of [3H]CQ (% PfCRTEcu1110 control), trans-stimulation, PfCRTEcu1110 oocytes, [test solute]i = 5 mM, total [3H]CQ transport, normalised to the oocyte type control): 98 ± 3.4% | activity at 45000 µM (PfCRT^Ecu1110 [8]; pH 5.5, read-out: Uptake of [3H]CQ (% PfCRTEcu1110 control), trans-stimulation, PfCRTEcu1110 oocytes, [test solute]i = 45 mM (30 mM for some solutes due to solubility), total [3H]CQ transport, normalised to the oocyte type control): 101 ± 3.2% | activity at 5000 µM (PfCRT^Ecu1110 [8]; read-out: Uptake of [3H]CQ (% PfCRTDd2 control), trans-stimulation, PfCRTEcu1110, total [3H]CQ transport, [test solute]i = 5 mM (intracellular), mean ± SEM, SEM): 35 ± 1.3% | activity at 45000 µM (PfCRT^Ecu1110 [8]; read-out: Uptake of [3H]CQ (% PfCRTDd2 control), trans-stimulation, PfCRTEcu1110, total [3H]CQ transport, [test solute]i = 45 mM (intracellular; 30 mM for some solutes due to solubility), mean ± SEM, SEM): 36 ± 1.7% | activity at 5000 µM (PfNT1; PfNT1 oocytes, [test solute]i = 5 mM, normalised to the oocyte type control, read-out: Uptake of [3H]CQ (% PfNT1 control), trans-stimulation): 99 ± 2.2% | activity at 45000 µM (PfNT1; SEM, read-out: Uptake of [3H]CQ (% PfCRTDd2 control), trans-stimulation, PfNT1): 2.8 ± 0.07% | activity at 45000 µM (PfNT1; read-out: Uptake of [3H]CQ (% PfNT1 control), trans-stimulation): 100 ± 2.5% | activity at 5000 µM (PfNT1; [test solute]i = 5 mM (intracellular), mean ± SEM, SEM, read-out: Uptake of [3H]CQ (% PfCRTDd2 control), trans-stimulation, PfNT1): 3 ± 0.01% | Compounds that have been tested as potential co-substrates but are not required for influx of VF-6 via PfCRT into the oocyte (PfCRT [9]): X | Tested as potential co-substrate but not required for influx of VF-6 via PfCRT into the oocyte (PfCRT [10]): X
